# Key:
# [1] = test system: P. aeruginosa biofilms; assay: Biofilm Growth Assay with compound in half of the agar and antibiotic disks; type: cell-based; details: 0.125 μg/ml in agar with colistin 10 μg disks
# Description: The Biofilm Growth Assay as described in Example VII was performed in round plates with the compounds of the invention in agar on half of the plate and antibiotic disks placed onto the agar containing the compounds of the invention.
# The Biofilm Growth Assay was performed as described in Example VIII. 2 to 4 antibiotic disks were placed onto the agar containing a compound of the invention in a line parallel to the line that separates the two agars in one round plate. Appropriate negative and positive control plates were performed as known to those skilled in the art.
# [2] = test system: cysB; details: as described in U.S. Pat. No. 7,604,978; cited from earlier work
# [3] = test system: B. cepacia; assay: Biofilm growth assay, Burkholderia cepacia; type: cell-based; details: Table 6, n = 10 isolates; M9 salts, 0.7% citrate, 0.4% Noble agar
# Description: The biofilm growth assay was carried out to measure swarming or biofilm spreading on semi-solid agar media in round plates (for example, 100×15 mm), also referred to as Petri dishes. For E. coli, the plates contained LB medium with 0.6% agar and 0.5% glucose. P. aeruginosa plates were made with M8 agar supplemented with 0.2% glucose, 100 μM CaCl2, 1 mM MgSO4, and 0.5% Casamino acids. The agar plates of this assay consisted of 0.4% to 0.7% agar (Bacto or Noble agar), although other media may also be used as described in the literature and known to those skilled in the art. Test compounds at the desired concentration were added to the cooled, autoclaved media. Portions of the media were then poured into the plates (20 mL/plate), and the plates allowed to dry at room temperature for approximately 3 to 4 hours. Alternatively, however, plates may be dried in a laminar flow hood for approximately fifteen to twenty minutes. Overnight cultures were grown in a 37° C. shaker in LB (E. coli) or TSB (P. aeruginosa). Plates were inoculated by placing 5 μL of the appropriate overnight culture in the centers of the plates. The plates then were incubated overnight at 37° C. The area of the zone of spreading bacteria was then measured and replicates are averaged. Percent inhibition was calculated as 100×(area without compound−area with compound)/(area without compound). […] A > (“greater than” symbol) as used in Table 1 is well understood to those skilled in the art as an indication that the listed concentration was not effective at this concentration.
# (§1) Table 6, below, lists the inhibitory concentrations of select compounds and antibiotics in the biofilm growth assay against various gram-negative bacterial biofilms. “N” means the number of isolates of bacteria tested. The biofilm growth assay procedure detailed in Example I, above, was followed. Burkholderia cepacia used media consisting of M9 salts, 100 μM CaCl2, 1 mM MgSO4, and 0.7% citrate in 0.4% Noble agar. Salmonella spp. used media consisting of Nutrient Broth with 0.5% glucose in 0.5% Noble agar.
# [4] = test system: Xanthomonas campestris; assay: Biofilm growth assay, plant pathogen Xanthomonas campestris; type: cell-based; details: M8 salts, 0.7% glucose, 0.5% Noble agar, 30° C., 24 to 48 hours
# [5] = test system: Salmonella spp.; assay: Biofilm growth assay, Salmonella spp.; type: cell-based; details: Table 6, n = 6 isolates; Nutrient Broth, 0.5% glucose, 0.5% Noble agar
# Description: The biofilm growth assay was carried out to measure swarming or biofilm spreading on semi-solid agar media in round plates (for example, 100×15 mm), also referred to as Petri dishes. For E. coli, the plates contained LB medium with 0.6% agar and 0.5% glucose. P. aeruginosa plates were made with M8 agar supplemented with 0.2% glucose, 100 μM CaCl2, 1 mM MgSO4, and 0.5% Casamino acids. The agar plates of this assay consisted of 0.4% to 0.7% agar (Bacto or Noble agar), although other media may also be used as described in the literature and known to those skilled in the art. Test compounds at the desired concentration were added to the cooled, autoclaved media. Portions of the media were then poured into the plates (20 mL/plate), and the plates allowed to dry at room temperature for approximately 3 to 4 hours. Alternatively, however, plates may be dried in a laminar flow hood for approximately fifteen to twenty minutes. Overnight cultures were grown in a 37° C. shaker in LB (E. coli) or TSB (P. aeruginosa). Plates were inoculated by placing 5 μL of the appropriate overnight culture in the centers of the plates. The plates then were incubated overnight at 37° C. The area of the zone of spreading bacteria was then measured and replicates are averaged. Percent inhibition was calculated as 100×(area without compound−area with compound)/(area without compound). An active compound was considered that which reduces the area of the spreading biofilm compared to negative controls by greater than or equal to 85%. The values shown in Table 1 are the concentrations of compounds (μg/ml) tested in the biofilm growth assay that reduce the area of the spreading biofilm compared to negative controls by greater than or equal to 85% unless noted differently in Table 1. A > (“greater than” symbol) as used in Table 1 is well understood to those skilled in the art as an indication that the listed concentration was not effective at this concentration.
# as §1
# [6] = test system: E. coli biofilms; assay: Biofilm growth assay (spreading biofilm on semi-solid agar), E. coli; type: cell-based; parameters: E. coli (n = 10) inhibitory concentration in the biofilm growth assay: unit: ug/mL
# Outline: (§2)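 Compound added to semi-solid agar: M8 with 0.2% glucose, 100 μM CaCl2, 1 mM MgSO4, 0.5% Casamino acids (P. aeruginosa) or LB with 0.6% agar, 0.5% glucose (E. coli). Center-inoculated with 5 μL overnight culture, incubated overnight at 37 °C; value is concentration (μg/ml) reducing spreading area ≥85% versus negative controls.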
# [7] = test system: Pectobacterium atrosepticum; assay: Biofilm growth assay, plant pathogen Pectobacterium atrosepticum; type: cell-based; details: M8 salts, 0.7% glucose, 0.5% Noble agar, 30° C., 24 to 48 hours
# [8] = test system: P. aeruginosa biofilms; assay: Biofilm growth assay (spreading biofilm on semi-solid agar), P. aeruginosa; type: cell-based; parameters: P. aeruginosa (n = 10) inhibitory concentration in the biofilm growth assay: unit: ug/mL
# Outline: as §2
# [9] = test system: Pseudomonas syringae; assay: Biofilm growth assay, plant pathogen Pseudomonas syringae; type: cell-based; details: M8 salts, 0.7% glucose, 0.5% Noble agar, 30° C., 24 to 48 hours
compound,measurement,setting,value
"CC1(C)CC[C@]2(C(=O)O)CC[C@]3(C)C(=CCC4[C@@]5(C)Cc6c(n[nH]c6N)C(C)(C)[C@@H]5CC[C@]43C)[C@@H]2C1 (stereo partly drawn) [Compound 1, (4aS,6aS,6bR,13aR)-12-Amino-2,2,6a,6b,9,9,13a-heptamethyl-2,3,4,4a,5,6,6a,6b,7,8,8a,9,11,13,13a,13b,14,15b-octadecahydro-1H-chryseno[1,2-f]indazole-4-a-carboxylic acid]",combination with colistin at preventing the growth of P. aeruginosa biofilms (FIG. 2),[1],synergistic
same,modulation of cysB and genes under its control,[2],modulates cysB and genes under its control
same,B. cepacia (n = 10) inhibitory concentration in the biofilm growth assay,[3],0.25
same,concentration inhibiting the spreading biofilm of Xanthomonas campestris,[4],0.5 µg/mL
same,Salmonella spp. (n = 6) inhibitory concentration in the biofilm growth assay,[5],1
same,IC85,"[6]; Escherichia coli, biofilm growth assay, overnight 37° C., vs negative controls, Tables 1-5, read-out: E. coli: concentration that reduces the area of the spreading biofilm by greater than or equal to 85%",1 µg/mL
same,E. coli (n = 10) inhibitory concentration in the biofilm growth assay,"[6]; Table 6, n = 10 isolates",1
same,concentration inhibiting the spreading biofilm of Pectobacterium atrosepticum,[7],0.06 µg/mL
same,growth of the spreading P. aeruginosa biofilm (FIG. 1),"[8]; 0.5 μg/ml in agar, overnight 37° C.",prevented the growth
same,optimal working concentration,[8]; P. aeruginosa biofilm growth assay (FIG. 2 legend),0.5 µg/mL
same,IC85,"[8]; Pseudomonas aeruginosa, biofilm growth assay, overnight 37° C., vs negative controls, Tables 1-5, read-out: P. aeruginosa: concentration that reduces the area of the spreading biofilm by greater than or equal to 85%",0.5 µg/mL
same,P. aeruginosa (n = 10) inhibitory concentration in the biofilm growth assay,"[8]; Table 6, n = 10 isolates",1
same,concentration inhibiting the spreading biofilm of Pseudomonas syringae,[9],0.03 µg/mL

# From patent US8324264B1, “Inhibitors of bacterial biofilms and related methods” (Sequoia Sciences, Inc., priority 2011, dated 2012)
